{"source": "paper PMC10541198", "about": "“Specific quinone reductase 2 inhibitors reduce metabolic burden and reverse Alzheimer’s disease phenotype in mice” (The Journal of Clinical Investigation, 2023)", "test_system": "5xFAD mice", "assay": "Novel object recognition in 5xFAD mice", "assay_type": "in vivo, mouse", "design": "key: (novel − familiar)/(novel + familiar) exploration time, −1 to 1", "settings": "5xFAD 1 month", "experimental": "We next aimed to test the effect of QR2 inhibition in AD model mice using YB-537, taking advantage of its extremely high specificity, solubility, and lack of toxicity. First, we determined YB-537 pharmacokinetics (PK) and oral bioavailability and assessed any acute observable toxicity in mice. […] We therefore opted to chronically deliver YB-537 to AD-model mice via their drinking water, so they may freely ingest the inhibitor at 50 mg/kg, with minimal intervention or trauma, for 1 month. We chose 9-month-old 5xFAD ([27]) male and female mice in double-blind experiments, so that well-progressed symptoms and pathologies would be present, to mimic clinically relevant cases in human patients ([35]), as has been previously described in this mouse model. Other than an improvement in nest quality ([36]) over time seen in animals receiving YB-537 (starting at age 8 months and ending at age 9 months), no changes to general physical parameters or wellbeing were observed over the 1 month of YB-537 ingestion (Supplemental Figure 6, A–J). […] Since learning in this paradigm was slow, and performance was poor even following 6 days of training (using 4 learning trials a day), a test day was not carried out and instead only the learning rate was measured. […]\nFollowing a 10 minute exploration of a 50 × 50 cm open-field arena, mice were returned to the arena the next day, which contained 2 identical objects. […] Mouse movement, exploration, and nuzzling was automatically recorded with an Ikegami ICD-49E camera with EthoVision 14 (Noldus Information Technology). Discrimination of the novel object was assessed by calculating (time exploring novel object – time exploring familiar object)/(time exploring novel object + time exploring familiar object). […]\nMice were individually placed within a cage and taken to a dimly lit room containing an open field arena 50 x 50 cm in size. […] Th e fl oor was ei ther whit e or black,dependingon mous e coat c ol or, to allow automatic analysisof movement par am et ers, apar t from rearing which was manually counted. […]", "note": "“And” between values parts separate entries of the source, which are not always exact repeats. Identical values can stand only once."}
{"smiles": "Cc1ccc(-c2cn3cccc(C)c3n2)cc1S(=O)(=O)N1CCNCC1", "note": "[YB-537]", "values": [{"measurement": "novel object discrimination (individual mice)", "setting": "both sexes", "value": "-0.101 and 0.504 and 0.236 and 0.249 and -0.330 and 0.874 and 0.145 and -0.163 and -0.038 and -0.010 and 0.265 and -0.414 and 0.439 and 0.710 and 0.259 and 0.231"}, {"measurement": "novel object discrimination (individual mice)", "setting": "females", "value": "0.504 and 0.236 and 0.439 and 0.710 and 0.259 and 0.231 and -0.101"}, {"measurement": "novel object discrimination (individual mice)", "setting": "males", "value": "-0.038 and -0.010 and 0.265 and -0.414 and 0.249 and -0.330 and 0.874 and 0.145 and -0.163"}]}
